Legend:
Test in all cases: relative viability (nuclei count vs DMSO), 5 days (fraction); higher = more cells survive
JZL-184 + Phenformin = compound: C1CN(CCC1C(C2=CC3=C(C=C2)OCO3)(C4=CC5=C(C=C4)OCO5)O)C(=O)OC6=CC=C(C=C6)[N+](=O)[O-] [JZL-184] + N=C(N)NC(=N)NCCc1ccccc1 [Phenformin] (partner 250 µM)
Summary of the method: (§1)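 Lung cancer cell lines were seeded in 1536-well plates and dosed by pin tool the next day, with either a single drug or a fixed anchor-drug dose combined with five library-drug doses (not always all listed) spaced in √10 steps. Five days later, one step fixed the cells and stained their nuclei (final 0.05% Triton X-100, 1% formaldehyde, 1 ug/ml Hoechst), and nuclei were counted on 4× images. Relative viability is the nuclei count in treated wells divided by the count in vehicle wells, and each value is the median of duplicate plates.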

JZL-184 + Lapatinib = compound: C1CN(CCC1C(C2=CC3=C(C=C2)OCO3)(C4=CC5=C(C=C4)OCO5)O)C(=O)OC6=CC=C(C=C6)[N+](=O)[O-] [JZL-184] + CS(=O)(=O)CCNCc1ccc(-c2ccc3ncnc(Nc4ccc(OCc5cccc(F)c5)c(Cl)c4)c3c2)o1 [Lapatinib] (partner 2 µM)
Summary of the method: as §1

JZL-184 + Pemetrexed = compound: C1CN(CCC1C(C2=CC3=C(C=C2)OCO3)(C4=CC5=C(C=C4)OCO5)O)C(=O)OC6=CC=C(C=C6)[N+](=O)[O-] [JZL-184] + Nc1nc2[nH]cc(CCc3ccc(C(=O)N[C@@H](CCC(=O)O)C(=O)O)cc3)c2c(=O)[nH]1 [Pemetrexed] (partner 0.2 µM)
Summary of the method: as §1

JZL-184 + Olaparib = compound: C1CN(CCC1C(C2=CC3=C(C=C2)OCO3)(C4=CC5=C(C=C4)OCO5)O)C(=O)OC6=CC=C(C=C6)[N+](=O)[O-] [JZL-184] + O=C(c1cc(Cc2n[nH]c(=O)c3ccccc23)ccc1F)N1CCN(C(=O)C2CC2)CC1 [Olaparib] (partner 8 µM)
Summary of the method: as §1

JZL-184 + Palbociclib = compound: C1CN(CCC1C(C2=CC3=C(C=C2)OCO3)(C4=CC5=C(C=C4)OCO5)O)C(=O)OC6=CC=C(C=C6)[N+](=O)[O-] [JZL-184] + CC(=O)c1c(C)c2cnc(Nc3ccc(N4CCNCC4)cn3)nc2n(C2CCCC2)c1=O [Palbociclib] (partner 0.5 µM)
Summary of the method: as §1

| Cell Line | relative viability (JZL-184 + Phenformin; first compound 0.04 µM) | relative viability (JZL-184 + Phenformin; first compound 0.4 µM) | relative viability (JZL-184 + Phenformin; first compound 1.265 µM) | relative viability (JZL-184 + Phenformin; first compound 4 µM) | relative viability (JZL-184 + Lapatinib; first compound 0.04 µM) | relative viability (JZL-184 + Lapatinib; first compound 0.4 µM) | relative viability (JZL-184 + Lapatinib; first compound 1.265 µM) | relative viability (JZL-184 + Lapatinib; first compound 4 µM) | relative viability (JZL-184 + Pemetrexed; first compound 0.04 µM) | relative viability (JZL-184 + Pemetrexed; first compound 0.4 µM) | relative viability (JZL-184 + Pemetrexed; first compound 1.265 µM) | relative viability (JZL-184 + Pemetrexed; first compound 4 µM) | relative viability (JZL-184 + Olaparib; first compound 0.04 µM) | relative viability (JZL-184 + Olaparib; first compound 0.4 µM) | relative viability (JZL-184 + Olaparib; first compound 1.265 µM) | relative viability (JZL-184 + Olaparib; first compound 4 µM) | relative viability (JZL-184 + Palbociclib; first compound 0.04 µM) | relative viability (JZL-184 + Palbociclib; first compound 0.4 µM) | relative viability (JZL-184 + Palbociclib; first compound 1.265 µM) | relative viability (JZL-184 + Palbociclib; first compound 4 µM) |
| --- | --- | --- | --- | --- | --- | --- | --- | --- | --- | --- | --- | --- | --- | --- | --- | --- | --- | --- | --- | --- |
| LU99A | 0.86 | 0.763 | 0.999 | 0.968 | 1.21 | 0.966 | 1.22 | 0.963 | 0.162 | 0.12 | 0.159 | 0.124 | 0.256 | 0.277 | 0.254 | 0.225 | 0.455 | 0.36 | 0.471 | 0.42 |
| LXF-289 | 0.574 | 0.496 | 0.546 | 0.525 | 0.92 | 0.866 | 0.924 | 0.852 | 0.882 | 0.779 | 0.862 | 0.875 | 1.16 | 1.06 | 1.01 | 0.975 | 0.693 | 0.564 | 0.572 | 0.595 |
| NCI-H23 | 0.879 | 0.793 | 0.817 | 0.855 | 1.39 | 0.969 | 1.26 | 1.07 | 0.772 | – | 0.704 | 0.597 | 0.388 | – | 0.303 | 0.366 | 0.594 | – | 0.484 | 0.486 |
| NCI-H322M | 0.844 | 0.718 | 0.818 | 0.662 | 0.654 | 0.599 | 0.562 | 0.578 | 0.591 | 0.604 | 0.615 | 0.538 | 0.785 | 0.591 | 0.774 | 0.733 | 0.483 | 0.449 | 0.509 | 0.451 |
| NCI-H358 | 0.422 | 0.32 | 0.304 | 0.328 | 0.52 | 0.418 | 0.448 | 0.436 | 0.195 | 0.162 | 0.181 | 0.163 | 0.804 | 0.637 | 0.599 | 0.592 | 0.138 | 0.142 | 0.137 | 0.129 |
| NCI-H460 | 0.626 | 0.483 | 0.521 | 0.485 | 1.86 | 0.894 | 1.09 | 0.881 | 0.0624 | 0.0591 | 0.0649 | 0.0648 | 0.337 | 0.427 | 0.458 | 0.394 | 0.147 | 0.0967 | 0.149 | 0.201 |
| NCI-H520 | 0.533 | 0.48 | 0.739 | 0.485 | 0.79 | 0.76 | 0.856 | 0.631 | 0.782 | 0.483 | 0.748 | 0.684 | 0.39 | 0.369 | 0.351 | 0.304 | 0.189 | 0.221 | 0.223 | 0.219 |
| NCI-H647 | 0.532 | 0.527 | 0.595 | 0.546 | 1.35 | 0.969 | 1.28 | 1.14 | 0.201 | 0.161 | 0.209 | 0.19 | 0.654 | 0.481 | 0.471 | 0.564 | 0.369 | 0.285 | 0.407 | 0.359 |
| NCI-H650 | 0.44 | 0.388 | 0.469 | 0.422 | 0.916 | 0.793 | 1.07 | 0.894 | 0.894 | 0.924 | 1.04 | 1.01 | 0.427 | 0.369 | 0.438 | 0.381 | 0.358 | 0.292 | 0.321 | 0.317 |
| NCI-H661 | 0.259 | 0.287 | 0.292 | 0.332 | 0.505 | 0.481 | 0.637 | 0.382 | 0.983 | 0.858 | 0.931 | 0.898 | 0.825 | 0.712 | 0.731 | 0.748 | 0.408 | 0.378 | 0.399 | 0.403 |
| NCI-H838 | 0.594 | 0.601 | 0.643 | 0.608 | 1.19 | 1.04 | 1.16 | 0.94 | 0.254 | 0.236 | 0.241 | 0.256 | 0.994 | 0.737 | 0.766 | 0.722 | 0.22 | 0.259 | 0.235 | 0.199 |
| NCI-H1355 | 0.421 | 0.427 | 0.505 | 0.429 | 0.974 | 0.921 | 1.02 | 0.943 | 1.06 | 0.945 | 1.05 | 1.04 | 0.775 | 0.708 | 0.78 | 0.707 | 0.376 | 0.381 | 0.423 | 0.4 |
| NCI-H1395 | 0.392 | 0.421 | 0.491 | 0.413 | 0.997 | 0.953 | 0.91 | 0.995 | 0.785 | 0.948 | 0.985 | 0.75 | 0.486 | 0.458 | 0.407 | 0.444 | 0.661 | 0.598 | 0.63 | 0.573 |
| NCI-H1437 | 0.301 | 0.307 | 0.302 | 0.288 | 0.984 | 0.717 | 0.773 | 0.759 | 0.306 | 0.322 | 0.309 | 0.312 | 0.665 | 0.61 | 0.632 | 0.636 | 0.333 | 0.321 | 0.297 | 0.282 |
| NCI-H1650 | 0.427 | 0.411 | 0.524 | 0.357 | 0.821 | 0.735 | 0.939 | 0.718 | 0.341 | 0.391 | 0.366 | 0.354 | 0.867 | 0.72 | 0.87 | 0.74 | 0.395 | 0.368 | 0.408 | 0.302 |

— the supplement of paper PMC10307832
